Experimental data reported in PMC8378549 (Antiviral research, 2021).

Tested on: TCRV (strain TRVL 11573)
Set-up: species or system AG129 mice
Conditions: mouse, in vivo

SMILES: NC(=O)c1ncn([C@@H]2O[C@H](CO)[C@@H](O)[C@H]2O)n1 [Ribavirin, ribavirin]
- Infectious TCRV Liver: 4.3, 3.5 log10 CCID50/mL
- Infectious TCRV Serum: 2.5, ND log10 CCID50/mL
- Infectious TCRV Spleen: 6.1, 5.5 log10 CCID50/mL
- survival: 82%
- viral loads on day 9 p.i. compared to placebo: only modestly reduced viral loads
